Publication PMC6753110, “Fragment-based discovery of the first nonpeptidyl inhibitor of an S46 family peptidase” (Scientific Reports, 2019)
Several values for one entry are separate records, joined by “and”; a condition that tells them apart may be missing. Equal entries are not always repeated. Where two headings read alike, the source gives them in different places.

Key:
PgDPP11 = molecular target: T1, PgDPP11 (Porphyromonas gingivalis, UniProt B2RID1); test: Inhibition of PgDPP11 enzymatic activity on Leu-Asp-MCA; format: biochemical; conditions: for Ki: Cheng-Prusoff equation; for remaining activity at 100 µM: inhibitor and synthetic substrate (Leu-Asp-MCA) 100 µM, 100% = activity without inhibitor, read-out: Residual activity (%)
T1 construct: signal peptide of DAP BIII (Pseudoxanthomonas mexicana WO24) (N, cleaved yes); made in house; host or cells: E. coli BL21 Gold(DE3), pET22b
T1 sequence (B2RID1 22-720): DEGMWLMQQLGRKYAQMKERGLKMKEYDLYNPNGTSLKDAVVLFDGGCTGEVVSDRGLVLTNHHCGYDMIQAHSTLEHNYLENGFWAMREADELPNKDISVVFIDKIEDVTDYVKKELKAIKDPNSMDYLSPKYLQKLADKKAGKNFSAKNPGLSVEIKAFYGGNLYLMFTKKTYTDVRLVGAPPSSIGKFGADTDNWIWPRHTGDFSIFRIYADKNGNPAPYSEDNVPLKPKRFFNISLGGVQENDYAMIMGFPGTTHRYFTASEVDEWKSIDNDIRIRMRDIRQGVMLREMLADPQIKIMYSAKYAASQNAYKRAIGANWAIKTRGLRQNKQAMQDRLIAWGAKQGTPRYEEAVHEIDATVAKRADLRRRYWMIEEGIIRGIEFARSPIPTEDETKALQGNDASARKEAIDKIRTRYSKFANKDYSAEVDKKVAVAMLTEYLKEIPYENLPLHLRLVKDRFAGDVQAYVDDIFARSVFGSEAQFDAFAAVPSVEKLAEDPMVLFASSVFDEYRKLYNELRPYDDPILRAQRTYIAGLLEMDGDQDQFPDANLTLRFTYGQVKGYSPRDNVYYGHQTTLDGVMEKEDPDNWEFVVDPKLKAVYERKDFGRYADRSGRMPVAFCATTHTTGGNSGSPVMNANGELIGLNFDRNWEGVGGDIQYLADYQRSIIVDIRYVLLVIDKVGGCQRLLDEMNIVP
Experimental: We evaluated the inhibitory effects of the 13 commercially available candidate compounds obtained by the in silico screening described above against the enzymatic activity of PgDPP11 on the synthetic substrate Leu-Asp-MCA (4-methylcoumaryl-7-amide) (Fig. 5). Each compound was first tested at a concentration of 100 μM.
Figure 5 Inhibitory effects of 13 candidate compounds obtained by multifilter in silico screening. […] Standard deviations were obtained from three independent experiments.
(§1) Thirteen of fifteen final candidate compounds from the in silico screening described above were purchased from Namiki Shoji Co., Ltd. (Tokyo, Japan). Half-maximal inhibitory concentration (IC50) values were determined by fitting to a sigmoidal curve (4-parameter logistic curve) using ImageJ[60] Competitive inhibition rates were measured using different concentrations of each inhibitor in a reaction buffer containing 50 mM sodium phosphate buffer (pH 8.0), 5 mM EDTA and 0.005% Tween 20 at 298 K for 20 min and using 100 µM Leu-Asp-MCA (4-methylcoumaryl-7-amide) as the substrate for DPP11s. For DPP7s, 100 µM Met-Leu-MCA was used as the substrate. The concentrations of PgDPP11, PgDPP7, SmDPP11 and SmDPP7 were 1, 10, 0.5 and 5 nM, respectively. The inhibitor concentrations were 1000, 500, 250, 125, 62.5, 31.3 and 15.6 µM. Standard deviations were calculated from three independent experiments. Fluorescence intensity was measured with excitation at 355 nm and emission at 460 nm using an Infinite 200 PRO microplate reader. Inhibition constants (Ki) were calculated using the Cheng-Prusoff equation[61].

SmDPP7 = SmDPP7 (Stenotrophomonas maltophilia, UniProt B4SLK2); test: Inhibition of SmDPP7 enzymatic activity on Met-Leu-MCA; format: biochemical; conditions: for remaining activity at 100 µM: read-out: Residual activity (%)
SmDPP7, sequence (B4SLK2 entry or part of it): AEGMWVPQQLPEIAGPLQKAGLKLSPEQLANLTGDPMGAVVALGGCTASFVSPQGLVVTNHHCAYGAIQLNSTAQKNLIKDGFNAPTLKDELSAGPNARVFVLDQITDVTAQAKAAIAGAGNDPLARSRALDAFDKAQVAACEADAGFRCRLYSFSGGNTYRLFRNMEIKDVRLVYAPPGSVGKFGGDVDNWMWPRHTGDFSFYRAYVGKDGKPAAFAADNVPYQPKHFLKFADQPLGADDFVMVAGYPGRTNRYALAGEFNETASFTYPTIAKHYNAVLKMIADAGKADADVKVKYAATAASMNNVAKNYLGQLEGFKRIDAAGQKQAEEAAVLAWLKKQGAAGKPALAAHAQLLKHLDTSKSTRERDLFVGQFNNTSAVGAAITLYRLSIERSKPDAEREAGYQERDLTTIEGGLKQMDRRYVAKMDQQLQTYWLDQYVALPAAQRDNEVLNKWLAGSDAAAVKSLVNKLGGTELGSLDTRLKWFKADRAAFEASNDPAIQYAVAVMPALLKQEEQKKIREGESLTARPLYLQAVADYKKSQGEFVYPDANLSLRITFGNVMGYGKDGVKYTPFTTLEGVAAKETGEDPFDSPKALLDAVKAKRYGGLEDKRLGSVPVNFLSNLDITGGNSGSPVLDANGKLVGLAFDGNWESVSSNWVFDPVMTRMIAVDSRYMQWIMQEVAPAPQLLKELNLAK
Text: (§2) To examine whether SH-5 is a universal inhibitor of S46 peptidases or is specific for PgDPP11, we evaluated the inhibitory effects of SH-5 against PgDPP7. In addition, the inhibitory effects of SH-5 against DPP7 and DPP11 from Stenotrophomonas maltophilia (SmDPP7 and SmDPP11, respectively) were also examined as another reference set of S46 peptidases in the same organism.
as §1

E. coli strain K12 = test: Antibacterial assay, growth of E. coli (OD 600 nm); format: cell-based; conditions: at the concentrations used for the inhibition of P. gingivalis growth
Experimental: (§3) The inhibitory effects of SH-5 and the lipophilic analog NPPB against growth of P. gingivalis strain W83 were evaluated by monitoring optical density at 600 nm (Fig. 6, closed squares). […] The maximal percent inhibition values for SH-5 and NPPB were 68% at 1 mM and 99% at 100 μM, respectively.
(§4) Antibacterial assays against P. gingivalis strain W83 and E. coli strain K12 were performed as previously described[62],[63]. P. gingivalis cells were cultured in anaerobic bacterium culture medium (ABCM, Eiken Chemical, Tokyo, Japan) containing 0.001% menadione under anaerobic conditions at 37 °C for 48 h. E. coli cells were grown in M9 medium with 1% glucose with shaking at 37 °C for 24 h. All compounds were dissolved in DMSO at stock concentrations of 100 mM. […] Growth of P. gingivalis and E. coli with compounds was determined as the optical density at 600 nm after incubation.

SmDPP11 = SmDPP11 (Stenotrophomonas maltophilia, UniProt B4SNQ8); test: Inhibition of SmDPP11 enzymatic activity on Leu-Asp-MCA; format: biochemical; conditions: for Ki / remaining activity at 100 µM: SmDPP11; for Ki: Cheng-Prusoff equation, 100 µM Leu-Asp-MCA; for remaining activity at 100 µM: inhibitor and synthetic substrate (Leu-Asp-MCA) 100 µM, 100% = activity without inhibitor, read-out: Residual activity (%)
SmDPP11, sequence (B4SNQ8 24-715 limits assumed): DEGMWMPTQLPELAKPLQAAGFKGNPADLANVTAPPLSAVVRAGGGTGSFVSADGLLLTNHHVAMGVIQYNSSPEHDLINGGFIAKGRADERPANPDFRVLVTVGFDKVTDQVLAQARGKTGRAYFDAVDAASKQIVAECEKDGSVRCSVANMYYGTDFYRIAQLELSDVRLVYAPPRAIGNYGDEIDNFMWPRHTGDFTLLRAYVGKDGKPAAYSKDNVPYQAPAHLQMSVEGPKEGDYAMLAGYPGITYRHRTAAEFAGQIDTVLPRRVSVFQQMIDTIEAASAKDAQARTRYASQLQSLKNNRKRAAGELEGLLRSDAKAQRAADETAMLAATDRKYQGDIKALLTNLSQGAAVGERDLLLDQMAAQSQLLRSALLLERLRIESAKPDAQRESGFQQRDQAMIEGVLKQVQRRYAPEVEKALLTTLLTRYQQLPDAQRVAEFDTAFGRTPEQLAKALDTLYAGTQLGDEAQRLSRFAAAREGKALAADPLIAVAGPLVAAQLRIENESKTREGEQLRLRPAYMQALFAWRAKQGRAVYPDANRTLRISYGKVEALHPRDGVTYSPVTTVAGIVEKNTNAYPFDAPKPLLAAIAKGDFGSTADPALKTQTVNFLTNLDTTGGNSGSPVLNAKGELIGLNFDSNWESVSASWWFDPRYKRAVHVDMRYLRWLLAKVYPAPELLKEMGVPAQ
Text: as §2, §1

PgDPP7 = PgDPP7 (Porphyromonas gingivalis, UniProt Q7MWU6); test: Inhibition of PgDPP7 enzymatic activity on Met-Leu-MCA; format: biochemical; conditions: for remaining activity at 100 µM: read-out: Residual activity (%)
PgDPP7, sequence (Q7MWU6 entry or part of it): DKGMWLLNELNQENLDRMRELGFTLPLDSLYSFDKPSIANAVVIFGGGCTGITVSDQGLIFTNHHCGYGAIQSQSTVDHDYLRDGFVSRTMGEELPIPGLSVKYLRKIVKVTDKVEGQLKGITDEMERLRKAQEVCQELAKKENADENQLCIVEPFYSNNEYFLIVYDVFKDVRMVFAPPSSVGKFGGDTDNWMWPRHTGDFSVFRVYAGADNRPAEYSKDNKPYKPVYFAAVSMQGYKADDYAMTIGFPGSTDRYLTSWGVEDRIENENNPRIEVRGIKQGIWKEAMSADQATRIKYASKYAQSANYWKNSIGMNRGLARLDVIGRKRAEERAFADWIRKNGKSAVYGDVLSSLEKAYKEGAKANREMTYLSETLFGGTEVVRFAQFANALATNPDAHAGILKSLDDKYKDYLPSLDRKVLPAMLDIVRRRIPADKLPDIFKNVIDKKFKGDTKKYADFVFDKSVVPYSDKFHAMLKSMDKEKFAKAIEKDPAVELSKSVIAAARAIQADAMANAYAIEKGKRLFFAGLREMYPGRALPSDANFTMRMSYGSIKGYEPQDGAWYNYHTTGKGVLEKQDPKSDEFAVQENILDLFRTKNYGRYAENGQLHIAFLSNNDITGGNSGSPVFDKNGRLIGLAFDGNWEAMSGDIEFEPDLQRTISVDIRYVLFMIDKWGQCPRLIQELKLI
Text: as §2, §1

P. gingivalis strain W83 = test: Antibacterial assay, growth of P. gingivalis (OD 600 nm); format: cell-based; conditions: Porphyromonas gingivalis; for IC50: strain W83, optical density at 600 nm, 48 h anaerobic, read-out: IC50, inhibition of growth of P. gingivalis
Experimental: as §3, §4

ClC-ec1 = test system: ClC-ec1; set-up: method as in PMID 23177200; conditions: cited from earlier work
ANO-2 = test system: ANO-2; set-up: method as in ref [6] of Table S1; conditions: Mouse, UniProt Q8CFW1; ref [6] of Table S1; cited from earlier work
ClC-2 = test system: ClC-2; set-up: method as in ref [1] of Table S1; conditions: Rat, UniProt P35525; ref [1] of Table S1; cited from earlier work
ClC-7 = test system: ClC-7; set-up: method as in ref [4] of Table S1; conditions: Human, UniProt P51798; ref [4] of Table S1; cited from earlier work
CFTR = test system: CFTR; set-up: method as in ref [8] of Table S1; conditions: Xenopus, UniProt P26363; ref [8] of Table S1; cited from earlier work
ClC-6 = test system: ClC-6; set-up: method as in ref [3] of Table S1; conditions: Human, UniProt P51797; ref [3] of Table S1; cited from earlier work
ANO-1 = test system: ANO-1; set-up: method as in ref [5] of Table S1; conditions: Mouse, UniProt Q8BHY3; ref [5] of Table S1; cited from earlier work
BEST-1 = test system: BEST-1; set-up: method as in ref [7] of Table S1; conditions: Mouse, UniProt O88870; ref [7] of Table S1; cited from earlier work
ClC-5 = test system: ClC-5; set-up: method as in ref [2] of Table S1; conditions: Mouse, UniProt Q9WVD4; ref [2] of Table S1; cited from earlier work

NC(=O)c1ccc(SCC(=O)O)c([N+](=O)[O-])c1 [SH-5_3, 2-(4-carbamoyl-2-nitrophenyl)sulfanylacetic acid]
inhibitory effect against PgDPP11 (in words) (PgDPP11): significant but relatively weak inhibitory effect
IC50 (PgDPP11; PgDPP11, dose-response 15.6-1000 μM, 100 µM Leu-Asp-MCA): ~1070 µM

NCCNc1ccc([N+](=O)[O-])cc1C(=O)O [SH-5, 2-[(2-aminoethyl)amino]-5-nitrobenzoic acid]
inhibitory effect against SmDPP7 (in words) (SmDPP7): significant inhibitory effects
Ki (SmDPP7; SmDPP7, Cheng-Prusoff equation, 100 µM Met-Leu-MCA): 36.6 ± 1.3 µM
remaining activity at 100 µM (SmDPP7; SmDPP7, inhibitor and synthetic substrate (Met-Leu-MCA) 100 µM, 100% = activity without inhibitor): 72.8 ± 0.7%
toxicity toward E. coli (growth) (E. coli strain K12): not toxic
inhibitory effect against PgDPP11 (in words) (PgDPP11): significant inhibitory effects
Ki (PgDPP11; PgDPP11, 100 µM Leu-Asp-MCA): ~8.45 µM and 8.45 µM
remaining activity at 100 µM (PgDPP11; PgDPP11): 62.9 ± 0.1%
inhibition at 100 µM (PgDPP11; compound tested at 100 μM, substrate Leu-Asp-MCA, read-out: inhibitory effect against PgDPP11): > 30%
ligand efficiency (LE) (PgDPP11; roughly calculated as LE = 1.37pIC50/HA): 0.346
inhibitory effect against SmDPP11 (in words) (SmDPP11): significant inhibitory effects
Ki (SmDPP11): 24.9 ± 0.5 µM
remaining activity at 100 µM (SmDPP11): 48 ± 1.1%
inhibitory effect against PgDPP7 (in words) (PgDPP7): significant inhibitory effects
Ki (PgDPP7; PgDPP7, Cheng-Prusoff equation, 100 µM Met-Leu-MCA): 52.2 ± 3.3 µM
remaining activity at 100 µM (PgDPP7; PgDPP7, inhibitor and synthetic substrate (Met-Leu-MCA) 100 µM, 100% = activity without inhibitor): 54.4 ± 0.7%
inhibition at 1000 µM (P. gingivalis strain W83; P. gingivalis W83, at 1 mM, read-out: maximal percent inhibition of growth): 68%
IC50 (P. gingivalis strain W83): 687 µM

O=C(O)c1cc([N+](=O)[O-])ccc1NCCCc1ccccc1 [NPPB, 5-nitro-2-(3-phenylpropylamino)benzoic acid]
inhibitory effect against SmDPP7 (in words) (SmDPP7): inactive
remaining activity at 100 µM (SmDPP7): 119 ± 0.3%
inhibition of ClC-ec1 protein (ClC-ec1): not be inhibited
inhibition of ANO-2 (ANO-2): inhibited
inhibition of ClC-2 (ClC-2): inhibited
toxicity toward E. coli (growth) (E. coli strain K12): not toxic
inhibition of ClC-7 (ClC-7): inhibited
inhibition of CFTR (CFTR): inhibited
inhibitory effect against PgDPP11 (in words) (PgDPP11): significant inhibitory effects
Ki (PgDPP11; PgDPP11, 100 µM Leu-Asp-MCA): ~15 µM and 15 µM
remaining activity at 100 µM (PgDPP11; PgDPP11): 70.3 ± 0.7%
inhibition of ClC-6 (ClC-6): inhibited
inhibitory effect against SmDPP11 (in words) (SmDPP11): significant inhibitory effects
Ki (SmDPP11): 84.8 ± 3.1 µM
remaining activity at 100 µM (SmDPP11): 67.7 ± 0.6%
inhibition of ANO-1 (ANO-1): inhibited
inhibitory effect against PgDPP7 (in words) (PgDPP7): inactive
remaining activity at 100 µM (PgDPP7): 159 ± 5%
inhibition of BEST-1 (BEST-1): inhibited
inhibition of ClC-5 (ClC-5): inhibited
inhibition at 100 µM (P. gingivalis strain W83; P. gingivalis W83, at 100 μM, read-out: maximal percent inhibition of growth): 99%
IC50 (P. gingivalis strain W83): 6 µM
